Measurements published in US20240218022A1, “ANTI-VISTA MACROCYCLIC PEPTIDES AND COMPOSITIONS” (BRISTOL-MYERS SQUIBB COMPANY, priority 2022, published 2024).
Positions of bridges follow the written chain, without caps; N, C: chain ends. Non-standard residues stand in square brackets, D forms with d. Residues, ends and D or L forms follow the SMILES beside them. N(3-phenylpropyl)Gly = O=C(O)CNCCCc1ccccc1; Ahp(2) = CCCCC[C@H](N)C(=O)O; NMeNle = CCCC[C@H](NC)C(=O)O; Tle = CC(C)(C)[C@H](N)C(=O)O; NHexGly = CCCCCCNCC(=O)O; Nle = CCCC[C@H](N)C(=O)O; Nva = CCC[C@H](N)C(=O)O

Biological target: T1, mouse VISTA (mVISTA) (Mus musculus, UniProt Q9D659)
T1 construct: expressed in transfected cells; host or cells: Human embryonic kidney 293T cells
T1 sequence (Q9D659 33-308): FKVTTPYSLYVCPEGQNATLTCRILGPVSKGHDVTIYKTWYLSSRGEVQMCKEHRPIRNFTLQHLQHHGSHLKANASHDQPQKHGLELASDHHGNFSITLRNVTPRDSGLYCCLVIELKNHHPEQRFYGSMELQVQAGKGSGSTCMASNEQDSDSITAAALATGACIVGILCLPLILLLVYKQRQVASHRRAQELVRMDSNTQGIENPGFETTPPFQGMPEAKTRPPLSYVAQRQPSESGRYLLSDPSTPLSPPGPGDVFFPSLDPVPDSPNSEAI
Assay: Cell-Based Binding High-Content Assay For mVISTA (HC CBA mVISTA)
Conditions: 293T cells expressing mouse VISTA; competition with biotinylated peptide (2 nM); read-out: HC CBA mVISTA IC50
Summary of the method: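 mVISTA-293T, 4,000 cells/well; cpd ± washout step; biotin-peptide 2 nM final, 30 min RT; SA-Alexa 647 30 min; formaldehyde/Hoechst fix; HCS imaging; 4PL IC50.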

Structure (SMILES) | IC50
CCCCC[C@@H]1NC(=O)[C@H](CCCC)N(C)C(=O)[C@H](CCCNC(=N)N)NC(=O)[C@H](CC(N)=O)NC(=O)[C@H](CC(C)C)NC(=O)[C@H](Cc2ccc(O)cc2)NC(=O)CN(CCCc2ccccc2)C(=O)[C@H](CC(=O)O)NC(=O)[C@H](Cc2ccc(O)cc2)NC(=O)[C@H](Cc2ccccc2)NC(=O)CSC[C@@H](C(=O)NCC(N)=O)NC(=O)[C@H](CO)NC(=O)[C@H](C(C)C)NC(=O)[C@@H]2CCCN2C1=O [Example 1086] ({CH2CO}-FYD[N(3-phenylpropyl)Gly]YLNR[NMeNle][Ahp(2)]PVSCG-NH2; thioether N-14) | 40.7 nM
CCCCC[C@@H]1NC(=O)[C@H](CCCC)N(C)C(=O)[C@H](CCCNC(=N)N)NC(=O)[C@H](CC(N)=O)NC(=O)[C@H](CC(C)C)NC(=O)[C@H](Cc2ccc(O)cc2)NC(=O)CN(CCCc2ccccc2)C(=O)[C@H](CC(=O)O)NC(=O)[C@H](Cc2ccc(O)cc2)NC(=O)[C@H](Cc2ccccc2)NC(=O)CSC[C@@H](C(=O)NCC(N)=O)NC(=O)[C@H](CO)NC(=O)[C@H](C(C)(C)C)NC(=O)[C@@H]2CCCN2C1=O [Example 1087] ({CH2CO}-FYD[N(3-phenylpropyl)Gly]YLNR[NMeNle][Ahp(2)]P[Tle]SCG-NH2; thioether N-14) | 34.7 nM
CCCCCCN1CC(=O)N[C@@H](Cc2ccc(O)cc2)C(=O)N[C@@H](CCCCC)C(=O)N[C@@H](CC(N)=O)C(=O)N[C@@H](CCCNC(=N)N)C(=O)N[C@@H](C)C(=O)N[C@@H](CCCCC)C(=O)N2CCC[C@H]2C(=O)N[C@@H](C(C)C)C(=O)N[C@@H](CO)C(=O)N[C@H](C(=O)NCC(N)=O)CSCC(=O)N[C@@H](Cc2ccccc2)C(=O)N[C@@H](Cc2ccc(O)cc2)C(=O)N[C@@H](CC(=O)O)C1=O [Example 1089] ({CH2CO}-FYD[NHexGly]Y[Ahp(2)]NRA[Ahp(2)]PVSCG-NH2; thioether N-14) | 37.9 nM
CCCCCCN1CC(=O)N[C@@H](Cc2ccc(O)cc2)C(=O)N[C@@H](CCCCC)C(=O)N[C@@H](CC(N)=O)C(=O)N[C@@H](CCCNC(=N)N)C(=O)N[C@@H](C)C(=O)N[C@@H](CCCCC)C(=O)N2CCC[C@H]2C(=O)N[C@@H](C(C)C)C(=O)N[C@@H](CO)C(=O)N[C@H](C(=O)NCC(=O)O)CSCC(=O)N[C@@H](Cc2ccccc2)C(=O)N[C@@H](Cc2ccc(O)cc2)C(=O)N[C@@H](CC(=O)O)C1=O [Example 1090] ({CH2CO}-FYD[NHexGly]Y[Ahp(2)]NRA[Ahp(2)]PVSCG-OH; thioether N-14) | 8 nM
CCCCCCN1CC(=O)N[C@@H](Cc2ccc(O)cc2)C(=O)N[C@@H](CC(C)C)C(=O)NCC(=O)N[C@@H](CCCNC(=N)N)C(=O)N[C@@H](CCCCN)C(=O)N[C@@H](CCCCC)C(=O)N2CCC[C@H]2C(=O)N[C@@H](C(C)C)C(=O)N[C@@H](CO)C(=O)N[C@H](C(=O)NCC(=O)O)CSCC(=O)N[C@@H](Cc2ccccc2)C(=O)N[C@@H](Cc2ccc(O)cc2)C(=O)N[C@@H](CC(=O)O)C1=O [Example 1091] ({CH2CO}-FYD[NHexGly]YLGRK[Ahp(2)]PVSCG-OH; thioether N-14) | 5.3 nM
CCCCCCN1CC(=O)N[C@@H](Cc2ccc(O)cc2)C(=O)N[C@@H](CC(C)C)C(=O)NCC(=O)N[C@@H](CCCNC(=N)N)C(=O)N[C@@H](CCCCN)C(=O)N[C@@H](CCCCC)C(=O)N2CCC[C@H]2C(=O)N[C@@H](C(C)C)C(=O)N[C@@H](CO)C(=O)N[C@H](C(=O)NCC(N)=O)CSCC(=O)N[C@@H](Cc2ccccc2)C(=O)N[C@@H](Cc2ccc(O)cc2)C(=O)N[C@@H](CC(=O)O)C1=O [Example 1092] ({CH2CO}-FYD[NHexGly]YLGRK[Ahp(2)]PVSCG-NH2; thioether N-14) | 27.1 nM
CCCCCCN1CC(=O)N[C@@H](Cc2ccc(O)cc2)C(=O)N[C@@H](CCCCC)C(=O)NCC(=O)N[C@@H](CCCNC(=N)N)C(=O)N[C@@H](Cc2ccc(O)cc2)C(=O)N[C@@H](CCCCC)C(=O)N2CCC[C@H]2C(=O)N[C@@H](C(C)C)C(=O)N[C@@H](CO)C(=O)N[C@H](C(=O)NCC(N)=O)CSCC(=O)N[C@@H](Cc2ccccc2)C(=O)N[C@@H](Cc2ccc(O)cc2)C(=O)N[C@@H](CC(=O)O)C1=O [Example 1093] ({CH2CO}-FYD[NHexGly]Y[Ahp(2)]GRY[Ahp(2)]PVSCG-NH2; thioether N-14) | 40.4 nM
CCCCCCN1CC(=O)N[C@@H](Cc2ccc(O)cc2)C(=O)N[C@@H](CC(C)C)C(=O)NCC(=O)N[C@@H](CCCNC(=N)N)C(=O)N[C@@H](Cc2ccc(O)cc2)C(=O)N[C@@H](CCCCC)C(=O)N2CCC[C@H]2C(=O)N[C@@H](C(C)C)C(=O)N[C@@H](CO)C(=O)N[C@H](C(=O)NCC(N)=O)CSCC(=O)N[C@@H](Cc2ccccc2)C(=O)N[C@@H](Cc2ccc(O)cc2)C(=O)N[C@@H](CC(=O)O)C1=O [Example 1094] ({CH2CO}-FYD[NHexGly]YLGRY[Ahp(2)]PVSCG-NH2; thioether N-14) | 34.9 nM
CCCCCCN1CC(=O)N[C@@H](Cc2ccc(O)cc2)C(=O)N[C@@H](CC(C)C)C(=O)NCC(=O)N[C@@H](CCCNC(=N)N)C(=O)N[C@@H](Cc2ccc(O)cc2)C(=O)N[C@@H](CCCCC)C(=O)N2CCC[C@H]2C(=O)N[C@@H](C(C)C)C(=O)N[C@@H](CO)C(=O)N[C@H](C(=O)NCC(=O)O)CSCC(=O)N[C@@H](Cc2ccccc2)C(=O)N[C@@H](Cc2ccc(O)cc2)C(=O)N[C@@H](CC(=O)O)C1=O [Example 1095] ({CH2CO}-FYD[NHexGly]YLGRY[Ahp(2)]PVSCG-OH; thioether N-14) | 17.4 nM
CCCCCCN1CC(=O)N[C@@H](Cc2ccc(O)cc2)C(=O)N[C@@H](CC(C)C)C(=O)NCC(=O)N[C@@H](CCCNC(=N)N)C(=O)N[C@@H](Cc2ccc(O)cc2)C(=O)N[C@@H](CCCCC)C(=O)N2CCC[C@H]2C(=O)N[C@@H](C(C)C)C(=O)N[C@@H](CC(=O)O)C(=O)N[C@H](C(=O)NCC(N)=O)CSCC(=O)N[C@@H](Cc2ccccc2)C(=O)N[C@@H](Cc2ccc(O)cc2)C(=O)N[C@@H](CC(=O)O)C1=O [Example 1096] ({CH2CO}-FYD[NHexGly]YLGRY[Ahp(2)]PVDCG-NH2; thioether N-14) | 15.5 nM
CCCCCCN1CC(=O)N[C@@H](Cc2ccc(O)cc2)C(=O)N[C@@H](CC(C)C)C(=O)NCC(=O)N[C@@H](CCCNC(=N)N)C(=O)N[C@@H](Cc2ccc(O)cc2)C(=O)N[C@@H](CCCCC)C(=O)N2CCC[C@H]2C(=O)N[C@@H](C(C)C)C(=O)N[C@@H](C(C)C)C(=O)N[C@H](C(=O)NCC(=O)O)CSCC(=O)N[C@@H](Cc2ccccc2)C(=O)N[C@@H](Cc2ccc(O)cc2)C(=O)N[C@@H](CC(=O)O)C1=O [Example 1097] ({CH2CO}-FYD[NHexGly]YLGRY[Ahp(2)]PVVCG-OH; thioether N-14) | 18 nM
CCCCCCN1CC(=O)N[C@@H](Cc2ccc(O)cc2)C(=O)N[C@@H](CCCCC)C(=O)N[C@@H](CC(N)=O)C(=O)N[C@@H](CCCNC(=N)N)C(=O)N[C@@H](Cc2c[nH]c3ccccc23)C(=O)N[C@@H](CCCCC)C(=O)N2CCC[C@H]2C(=O)N[C@@H](C(C)C)C(=O)N[C@@H](CO)C(=O)N[C@H](C(=O)NCC(=O)O)CSCC(=O)N[C@@H](Cc2ccccc2)C(=O)N[C@@H](Cc2ccc(O)cc2)C(=O)N[C@@H](CC(=O)O)C1=O [Example 1098] ({CH2CO}-FYD[NHexGly]Y[Ahp(2)]NRW[Ahp(2)]PVSCG-OH; thioether N-14) | 14.7 nM
CCCCCCN1CC(=O)N[C@@H](Cc2ccc(O)cc2)C(=O)N[C@@H](CCCC)C(=O)NCC(=O)N[C@@H](CCCNC(=N)N)C(=O)N[C@@H](CC(C)C)C(=O)N[C@@H](CCCCC)C(=O)N2CCC[C@H]2C(=O)N[C@@H](C(C)C)C(=O)N2CCC[C@H]2C(=O)N[C@H](C(=O)NCC(=O)O)CSCC(=O)N[C@@H](Cc2ccccc2)C(=O)N[C@@H](Cc2ccc(O)cc2)C(=O)N[C@@H](CC(=O)O)C1=O [Example 1099] ({CH2CO}-FYD[NHexGly]Y[Nle]GRL[Ahp(2)]PVPCG-OH; thioether N-14) | 21.6 nM
CCCCCCN1CC(=O)N[C@@H](Cc2ccc(O)cc2)C(=O)N[C@@H](CCCCC)C(=O)NCC(=O)N[C@@H](CCCNC(=N)N)C(=O)N[C@@H](CC(C)C)C(=O)N[C@@H](CCCCC)C(=O)N2CCC[C@H]2C(=O)N[C@@H](C(C)C)C(=O)N2CCC[C@H]2C(=O)N[C@H](C(=O)NCC(N)=O)CSCC(=O)N[C@@H](Cc2ccccc2)C(=O)N[C@@H](Cc2ccc(O)cc2)C(=O)N[C@@H](CC(=O)O)C1=O [Example 1100] ({CH2CO}-FYD[NHexGly]Y[Ahp(2)]GRL[Ahp(2)]PVPCG-NH2; thioether N-14) | 17.6 nM
CCCCCCN1CC(=O)N[C@@H](Cc2ccc(O)cc2)C(=O)N[C@@H](CCC)C(=O)NCC(=O)N[C@@H](CCCNC(=N)N)C(=O)N[C@@H](CC(C)C)C(=O)N[C@@H](CCCCC)C(=O)N2CCC[C@H]2C(=O)N[C@@H](C(C)C)C(=O)N2CCC[C@H]2C(=O)N[C@H](C(=O)NCC(N)=O)CSCC(=O)N[C@@H](Cc2ccccc2)C(=O)N[C@@H](Cc2ccc(O)cc2)C(=O)N[C@@H](CC(=O)O)C1=O [Example 1102] ({CH2CO}-FYD[NHexGly]Y[Nva]GRL[Ahp(2)]PVPCG-NH2; thioether N-14) | 25.7 nM
CCCCCCN1CC(=O)N[C@@H](Cc2ccc(O)cc2)C(=O)N[C@@H](C(C)C)C(=O)NCC(=O)N[C@@H](CCCNC(=N)N)C(=O)N[C@@H](CC(C)C)C(=O)N[C@@H](CCCCC)C(=O)N2CCC[C@H]2C(=O)N[C@@H](C(C)C)C(=O)N2CCC[C@H]2C(=O)N[C@H](C(=O)NCC(=O)O)CSCC(=O)N[C@@H](Cc2ccccc2)C(=O)N[C@@H](Cc2ccc(O)cc2)C(=O)N[C@@H](CC(=O)O)C1=O [Example 1109] ({CH2CO}-FYD[NHexGly]YVGRL[Ahp(2)]PVPCG-OH; thioether N-14) | 39.1 nM
